Experimental data published in patent publication US20230285260A1, “USE OF SACCHARIDES FOR CRYOPROTECTION AND RELATED TECHNOLOGY” (Zeltiq Aesthetics, Inc., priority 2017, published 2023).

System: subject's skin
Experiment: pre-cooling skin treatment followed by cooling (freeze) treatment at subject's flank, compared to a control site
Format: in vivo, human
Conditions: general statement of the inventors' finding
Procedure: A mixture of trehalose, water, and […] (PG) was tested as a pre-cooling skin treatment. The mixture was formed by combining 100 grams of trehalose, 100 mL of water, and 40 mL of PG. The trehalose was expected to provide cryoprotection, while the water and PG were expected to act as penetration-enhancing excipients. A first site at a subject's right flank was given the pre-cooling skin treatment, while an opposite second site at the subject's left flank was designated as a control. The pre-cooling treatment at the first site included placing a small piece of rayon fabric soaked in […] of the mixture directly onto the subject's skin and waiting for 12 minutes. It was expected that passive diffusion of trehalose into the subject's skin occurred to some extent during this period. Next, an ultrasound cavitation device (40 kHz) was moved top-to-bottom and bottom-to-top over the subject's skin at the first site for 3 minutes. During this period, 5 mL of the mixture was poured over the subject's skin at the first site.
After the pre-cooling skin treatment at the first site, an applicator having a rectangular plate-type heat-transfer surface with an area of 1.7 square inches was used to execute a cooling treatment at the first and second sites. […]

## OC[C@H]1O[C@H](O[C@H]2O[C@H](CO)[C@@H](O)[C@H](O)[C@H]2O)[C@H](O)[C@@H](O)[C@@H]1O [trehalose]
  reducing cryoinjury to skin cells: effective
